On the set-up of data set [1]: method as in Rudorfer and Potter, 1999. The following applies: ref Rudorfer and Potter, 1999; cited from earlier work.
Details of data set [2]: method as in Hardman et al., 2001. As to conditions: ref Hardman et al., 2001; cited from earlier work.
In data set [3] the test system is OCT1. Put plainly: Plasma acylcarnitine concentrations as endogenous biomarkers for OCT1 activity in healthy volunteers. The class given is in vivo, human.
Experimental: The peripheral venous blood samples of the healthy volunteers were treated with ethylenediaminetetraacetic acid (EDTA) for anticoagulation, centrifuged within 30 min after withdrawal (3,100 × g, 10 min, room temperature), and the plasma was stored at −20°C. For determining the plasma concentrations of AT, NT, IBC, 2-methylbutyrylcarnitine, and propionylcarnitine, plasma samples were mixed with twice the volume precipitation reagent of 10% (v/v) methanol and 90% (v/v) acetonitrile that included the corresponding deuterated internal standards AT-d6 (Biozol Diagnostica GmbH, Eching, Germany), NT-d3, IBC-d6, 2-methylbutyrylcarnitine-d9, and propionylcarnitine-d3 and d9 (all Santa Cruz Biotechnology, Heidelberg, Germany) and shaken for 15 min. After centrifugation (13,000 rpm, 15 min, room temperature), two-thirds of the supernatant were transferred to a new reaction tube and evaporated at 40°C under nitrogen flow. The residue was reconstituted under shaking in 0.1% methanoic acid and briefly centrifuged before quantification using a Nexera UHPLC system (Shimadzu, Kyoto, Japan) coupled to an API 4000 tandem mass spectrometer (AB Sciex, Darmstadt, Germany). Separation was done using a Brownlee SPP RP-Amide column (4.6 × 100 mm inner dimensions, 2.7 µm particle size; PerkinElmer, Rodgau, Germany) with a Phenomenex C18 pre-column (4 × 2 mm, Phenomenex, Aschaffenburg, Germany). For AT and NT, the mobile phase consisted of 0.1% (v/v) methanoic acid, 5.3% (v/v) methanol, and 31.7% (v/v) acetonitrile in water. For the carnitine derivatives, it consisted of 0.1% (v/v) methanoic acid, 0.43% (v/v) methanol, and 2.57% (v/v) acetonitrile in water. The lower limit of quantification was 0.5 ng/ml for AT and 0.1 ng/ml for NT. […]
In order to investigate the proposed suitability of IBC as a human in vivo biomarker for OCT1 activity ([Luo et al., 2020]), plasma concentrations of IBC as well as of 2-methylbutyrylcarnitine and propionylcarnitine were determined in a subgroup of 18 volunteers who participated in the study on AT pharmacokinetics. […]
Data set [4] has as its target T1, OCT1 (Homo sapiens, UniProt O15245).
T1 construct: expressed in transfected cells
T1 sequence (O15245 1-554): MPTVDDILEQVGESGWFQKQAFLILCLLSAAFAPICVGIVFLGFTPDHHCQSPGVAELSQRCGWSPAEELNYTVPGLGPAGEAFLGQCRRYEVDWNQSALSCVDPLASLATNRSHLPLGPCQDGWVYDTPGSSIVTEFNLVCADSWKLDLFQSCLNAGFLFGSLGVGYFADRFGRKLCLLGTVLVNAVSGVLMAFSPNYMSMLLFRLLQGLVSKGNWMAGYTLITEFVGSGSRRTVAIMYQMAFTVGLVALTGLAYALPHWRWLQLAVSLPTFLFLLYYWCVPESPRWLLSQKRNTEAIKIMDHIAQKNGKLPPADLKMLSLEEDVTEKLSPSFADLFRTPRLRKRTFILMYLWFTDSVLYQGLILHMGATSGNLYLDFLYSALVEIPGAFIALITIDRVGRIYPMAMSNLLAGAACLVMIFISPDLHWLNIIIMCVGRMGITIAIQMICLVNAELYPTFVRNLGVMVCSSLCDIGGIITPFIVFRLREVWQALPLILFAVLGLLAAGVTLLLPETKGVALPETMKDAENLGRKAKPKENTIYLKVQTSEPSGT
Nature of the data set: in vitro. On the procedure:
The inhibition of OCT1 by different psychotropic drugs was studied in transport experiments using HEK293 cells stably transfected with wild-type OCT1. The cells were generated by targeted chromosomal integration using the Flp-In system (Thermo Fisher Scientific, Darmstadt, Germany), as has been described in detail before ([Saadatmand et al., 2012]). The cells were cultured in Dulbecco’s Modified Eagle’s Medium supplemented with 10% foetal bovine serum, 100 U/ml penicillin, and 100 μg/ml streptomycin at 37°C, 5% CO2, and 95% relative humidity. Cells were kept in culture for no more than 30 passages. All buffers and reagents were purchased from Thermo Fisher Scientific (Darmstadt, Germany).
Approximately 48 h before the transport experiments, recombinant OCT1-expressing cells and empty vector-transfected control cells were seeded at a density of 4 × 10^5 cells/well in 12-well plates coated with poly-D-lysine and incubated as described above. On the day of the experiment, the cells were washed twice with prewarmed (37°C) Hank’s Balanced Salt Solution (HBSS). They were subsequently incubated for 3 min at 37°C with 1 µM of the fluorescent OCT1 substrate ASP^+ (4-(4-(dimethylamino)styryl)-N-methylpyridinium iodide) and increasing concentrations of the antidepressants in 500 µl HBSS. The reaction was stopped by adding 2 ml ice-cold HBSS. This was subsequently removed and the cells were lyzed in 500 µl radioimmunoprecipitation assay (RIPA) buffer for 10 min under shaking. The cell uptake of ASP^+ was quantified using a Tecan Ultra microplate reader (Tecan Group AG, Männedorf, Switzerland) at excitation wavelength 485 nm and emission wavelength 612 nm. The intracellular ASP^+ concentrations were normalised to the total amount of protein in the sample that was determined using the bicinchoninic acid assay ([Smith et al., 1985]). IC50 values were calculated using SigmaPlot 11 (Systat Software GmbH, Erkrath, Germany) and Prism 5 (GraphPad Software, San Diego, CA, United States).

The conditions of data set [5]: no reference given, cited from earlier work.
Data set [6] can be described thus: Adverse effects of amitriptyline in healthy volunteers (visual analogue scales, pupillometry). The class given is in vivo, human. On the procedure:
After overnight fasting, a single dose of 25 mg […] dura GmbH, Darmstadt, Germany) was orally administered to each subject. […] For the study in healthy volunteers, the primary endpoints were the AUCs of plasma AT and NT concentrations. Secondary endpoints were the other pharmacokinetic parameters of AT and NT, as well as heart rate, blood pressure, pupil size effects, and possible adverse events (headache, fatigue, visual or hearing impairments, restlessness, nausea, dizziness, dry mouth, tremor, as well as sensations of hypothermia and heart palpitations determined using a visual analogue scale test). Pharmacokinetic parameters were calculated by non-compartmental analysis using Phoenix 64 WinNonlin version 6.3 (Certara Inc., Princeton, NJ, United States). AUCinf of AT was calculated from the time of dosing using the linear/log trapezoidal rule and extrapolated to infinity based on the last predicted concentration and using the terminal elimination rate constant (lambda z). AUC of NT was calculated from the time of dosing until the last measurement at 48 h using the linear/log trapezoidal rule, as a decline in NT concentrations was not observed in some subjects and extrapolation to infinity thus not possible.

Read-outs that look alike come from different tables or passages of the source.

`CN(C)CCC=C1c2ccccc2CCc2ccccc21` [Amitriptyline, amitriptyline]: the “excreted unchanged in urine” value in data set [1] is given as “less than 5%”. In addition, the plasma protein binding in data set [2] was 95%. For the same compound, the “plasma IBC concentration relative to baseline IBC concentration” value was 72% in the data set with OCT1 [3] (2 h after 25 mg AT administration) and 67% in the data set on OCT1 [3] (4 h after 25 mg AT administration). Besides, the “decrease in IBC plasma concentration observed in vivo” value in the data set on OCT1 [3] (after 25 mg AT) came out at 33%. In addition, the inhibition at 3 min, 2.69 µM against OCT1 [4] (human, HEK293 cells stably transfected with wild-type OCT1) is 23%. For the same compound, at OCT1 [4] (read-out: IC50 (OCT1 inhibition)), the IC50 came to 28.6 ± 18.9 µM. Moreover, the positively charged fraction result in data set [5] (at physiological pH) is “approximately 99%”. Further, the logD7.4 in data set [5] (pH 7.4) is given as 3. Besides, in data set [6] (healthy volunteers, single oral 25 mg AT, entire study), the serious adverse events result is reported as “no serious adverse events occurred”. Besides, the tolerability entry in data set [6] (healthy volunteers, single oral 25 mg AT, no placebo control) was “generally well-tolerated”. In addition, the “time- and concentration-related adverse effects (dry mouth, visual or hearing impairment, restlessness, headache, nausea, dizziness, sensation of cold) and anticholinergic effects by pupillometry” value in data set [6] (visual analogue scales and pupillometry, 25 mg AT dose) was “not observed”. In addition, the “time of peak fatigue symptoms after administration” value in data set [6] (visual analogue scales, healthy volunteers, 25 mg AT, no placebo control) is recorded as 3 h.
`CNCCC=C1c2ccccc2CCc2ccccc21` [Nortriptyline, nortriptyline]: the midpoint of inhibition against OCT1 [4] (inhibition of uptake of 1 µM ASP+, 3 min, HEK293 cells with wild-type OCT1, mean), the IC50, lay at 40.4 ± 16.2 µM.

One may read the inhibition as the relative decrease from the control value, in per cent. One may read the IC50 as the concentration at which inhibition is half-maximal.

The values above are taken from article PMC8175851, “Effects of Genetic Polymorphism in CYP2D6, CYP2C19, and the Organic Cation Transporter OCT1 on Amitriptyline Pharmacokinetics in Healthy Volunteers and Depressive Disorder Patients” (Frontiers in Pharmacology, 2021).
